How the values were obtained:
Experiment in all cases: radiometric filter-binding kinase assay
DYRK1A (human) = DYRK1A (human) (UniProt Q13627); settings: compound 100.0 µM; ATP 50 µM
MAP3K9 (human) = MAP3K9 (human) (UniProt P80192); settings: compound 100.0 µM; ATP 20 µM
PIM2 (human) = PIM2 (human) (UniProt Q9P1W9); settings: compound 100.0 µM; ATP 5 µM
PIM1 (human) = PIM1 (human) (UniProt P11309); settings: compound 100.0 µM; ATP 20 µM
STK3 (human) = STK3 (human) (UniProt Q13188); settings: compound 100.0 µM; ATP 20 µM
STK3 (human), sequence (Q13188 whole entry, looked up): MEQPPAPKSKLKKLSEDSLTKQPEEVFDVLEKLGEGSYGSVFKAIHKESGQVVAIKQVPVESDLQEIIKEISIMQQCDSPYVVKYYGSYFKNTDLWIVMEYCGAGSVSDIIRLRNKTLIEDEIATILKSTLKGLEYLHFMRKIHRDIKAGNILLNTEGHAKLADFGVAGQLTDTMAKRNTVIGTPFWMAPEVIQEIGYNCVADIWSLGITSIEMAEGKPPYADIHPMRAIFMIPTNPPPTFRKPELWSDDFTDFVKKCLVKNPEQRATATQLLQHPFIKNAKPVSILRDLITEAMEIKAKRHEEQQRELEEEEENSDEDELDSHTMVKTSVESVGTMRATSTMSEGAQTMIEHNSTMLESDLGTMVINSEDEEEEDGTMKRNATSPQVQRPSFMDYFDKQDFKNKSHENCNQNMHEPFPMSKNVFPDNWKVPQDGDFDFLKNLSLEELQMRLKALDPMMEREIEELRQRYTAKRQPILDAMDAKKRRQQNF

RPS6KA5 KD1 KD2 (human) = RPS6KA5 KD1 KD2 (human) (UniProt O75582); settings: compound 100.0 µM; ATP 20 µM
YES1 (human) = YES1 (human) (UniProt P07947); settings: compound 100.0 µM; ATP 20 µM
YES1 (human), sequence (P07947 whole entry, looked up): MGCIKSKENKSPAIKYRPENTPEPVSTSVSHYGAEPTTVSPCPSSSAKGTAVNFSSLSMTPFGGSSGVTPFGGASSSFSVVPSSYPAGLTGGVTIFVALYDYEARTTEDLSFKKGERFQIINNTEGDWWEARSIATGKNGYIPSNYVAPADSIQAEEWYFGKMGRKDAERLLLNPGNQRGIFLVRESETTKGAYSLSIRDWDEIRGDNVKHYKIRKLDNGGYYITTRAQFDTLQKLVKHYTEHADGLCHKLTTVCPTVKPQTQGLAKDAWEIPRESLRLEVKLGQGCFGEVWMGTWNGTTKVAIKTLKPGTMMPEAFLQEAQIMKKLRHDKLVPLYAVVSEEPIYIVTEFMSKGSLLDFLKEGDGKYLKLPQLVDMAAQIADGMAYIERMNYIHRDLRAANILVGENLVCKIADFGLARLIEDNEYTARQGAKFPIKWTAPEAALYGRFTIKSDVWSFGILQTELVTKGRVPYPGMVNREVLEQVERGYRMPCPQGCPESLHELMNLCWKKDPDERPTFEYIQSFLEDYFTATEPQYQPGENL

CHEK2 (human) = CHEK2 (human) (UniProt O96017); settings: compound 100.0 µM; ATP 20 µM
CHEK2 (human), sequence (O96017 whole entry, looked up): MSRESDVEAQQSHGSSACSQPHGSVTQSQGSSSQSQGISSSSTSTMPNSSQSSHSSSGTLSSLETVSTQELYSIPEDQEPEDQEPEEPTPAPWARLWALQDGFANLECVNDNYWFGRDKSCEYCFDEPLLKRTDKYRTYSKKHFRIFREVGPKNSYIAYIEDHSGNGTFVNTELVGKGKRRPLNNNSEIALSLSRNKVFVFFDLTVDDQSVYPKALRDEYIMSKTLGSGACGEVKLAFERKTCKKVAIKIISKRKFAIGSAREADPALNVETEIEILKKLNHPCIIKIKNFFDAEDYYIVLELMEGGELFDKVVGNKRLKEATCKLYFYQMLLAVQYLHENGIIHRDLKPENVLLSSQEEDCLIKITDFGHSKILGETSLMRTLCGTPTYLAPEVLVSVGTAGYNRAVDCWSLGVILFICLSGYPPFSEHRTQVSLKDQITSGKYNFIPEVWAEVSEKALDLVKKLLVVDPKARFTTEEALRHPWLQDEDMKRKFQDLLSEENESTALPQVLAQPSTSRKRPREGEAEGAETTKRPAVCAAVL

FLT1 (human) = FLT1 (human) (UniProt P17948); settings: compound 100.0 µM; ATP 20 µM
MAP3K1 (human) = MAP3K1 (human) (UniProt Q13233); settings: compound 100.0 µM; ATP 50 µM
MINK1 (human) = MINK1 (human) (UniProt Q8N4C8); settings: compound 100.0 µM; ATP 50 µM
FGFR1 (human) = FGFR1 (human) (UniProt P11362); settings: compound 100.0 µM; ATP 20 µM
IGF1R (human) = IGF1R (human) (UniProt P08069); settings: compound 100.0 µM; ATP 5 µM
[1] = molecular target: STK11 CAB39 STRADA (human) (UniProt Q9Y376+Q7RTN6+Q15831); settings: compound 100.0 µM; ATP 20 µM
PAK6 (human) = PAK6 (human) (UniProt Q9NQU5); settings: compound 100.0 µM; ATP 20 µM
PAK6 (human), sequence (Q9NQU5 whole entry, looked up): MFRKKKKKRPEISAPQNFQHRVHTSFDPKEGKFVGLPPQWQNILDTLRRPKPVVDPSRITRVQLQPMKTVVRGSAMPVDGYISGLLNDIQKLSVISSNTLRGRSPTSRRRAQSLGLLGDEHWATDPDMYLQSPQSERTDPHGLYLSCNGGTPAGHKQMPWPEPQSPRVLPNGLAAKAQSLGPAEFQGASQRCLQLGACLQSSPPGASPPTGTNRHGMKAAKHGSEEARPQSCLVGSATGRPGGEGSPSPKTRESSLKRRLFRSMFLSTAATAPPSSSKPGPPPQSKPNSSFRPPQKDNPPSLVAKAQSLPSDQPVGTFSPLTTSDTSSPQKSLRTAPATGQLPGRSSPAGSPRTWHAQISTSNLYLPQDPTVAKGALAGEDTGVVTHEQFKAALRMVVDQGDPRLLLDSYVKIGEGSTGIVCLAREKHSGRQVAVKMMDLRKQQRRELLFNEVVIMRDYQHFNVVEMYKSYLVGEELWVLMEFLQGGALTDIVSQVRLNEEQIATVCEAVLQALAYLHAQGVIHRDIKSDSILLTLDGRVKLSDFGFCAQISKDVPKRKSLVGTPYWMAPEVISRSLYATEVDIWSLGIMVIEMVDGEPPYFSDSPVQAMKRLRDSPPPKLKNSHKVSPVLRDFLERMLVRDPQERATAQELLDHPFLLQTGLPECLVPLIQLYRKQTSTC

DYRK3 (human) = DYRK3 (human) (UniProt O43781); settings: compound 100.0 µM; ATP 5 µM
MAPK11 (human) = MAPK11 (human) (UniProt Q15759); settings: compound 100.0 µM; ATP 20 µM
DYRK2 (human) = DYRK2 (human) (UniProt Q92630); settings: compound 100.0 µM; ATP 50 µM
DYRK2 (human), sequence (Q92630 whole entry, looked up): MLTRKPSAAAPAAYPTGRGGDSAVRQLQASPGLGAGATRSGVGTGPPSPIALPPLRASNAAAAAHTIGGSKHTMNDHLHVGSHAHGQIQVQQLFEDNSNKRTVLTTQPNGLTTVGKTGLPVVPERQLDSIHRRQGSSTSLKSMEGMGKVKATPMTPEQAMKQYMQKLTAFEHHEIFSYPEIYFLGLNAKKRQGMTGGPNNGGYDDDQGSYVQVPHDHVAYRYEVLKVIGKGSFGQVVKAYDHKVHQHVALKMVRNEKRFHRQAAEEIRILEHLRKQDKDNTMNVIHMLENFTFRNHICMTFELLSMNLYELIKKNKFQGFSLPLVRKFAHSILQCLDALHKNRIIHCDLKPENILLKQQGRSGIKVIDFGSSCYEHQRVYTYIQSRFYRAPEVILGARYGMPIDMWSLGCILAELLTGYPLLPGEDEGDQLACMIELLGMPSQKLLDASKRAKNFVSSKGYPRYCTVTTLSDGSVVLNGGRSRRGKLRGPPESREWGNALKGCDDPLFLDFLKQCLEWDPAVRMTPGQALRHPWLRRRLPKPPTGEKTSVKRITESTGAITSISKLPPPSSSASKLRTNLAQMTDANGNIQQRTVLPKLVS

[2] = molecular target: PRKAA1 PRKAB2 PRKAG1 (human) (UniProt O43741+Q13131+P54619); settings: compound 100.0 µM; ATP 20 µM
MST4 (human) = MST4 (human) (UniProt Q9P289); settings: compound 100.0 µM; ATP 20 µM
PHKG1 (human) = PHKG1 (human) (UniProt Q16816); settings: compound 100.0 µM; ATP 50 µM
PHKG1 (human), sequence (Q16816 whole entry, looked up): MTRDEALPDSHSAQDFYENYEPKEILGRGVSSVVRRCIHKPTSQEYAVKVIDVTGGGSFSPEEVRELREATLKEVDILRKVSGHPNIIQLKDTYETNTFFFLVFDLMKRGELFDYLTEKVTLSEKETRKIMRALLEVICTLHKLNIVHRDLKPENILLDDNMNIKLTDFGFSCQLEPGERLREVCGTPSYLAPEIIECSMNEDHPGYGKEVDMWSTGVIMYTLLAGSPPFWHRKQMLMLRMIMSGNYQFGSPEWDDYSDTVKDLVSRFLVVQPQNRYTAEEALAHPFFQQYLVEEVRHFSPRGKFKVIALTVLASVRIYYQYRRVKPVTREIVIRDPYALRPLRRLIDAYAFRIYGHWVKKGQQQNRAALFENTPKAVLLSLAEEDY

MYLK (human) = MYLK (human) (UniProt Q15746); settings: compound 100.0 µM; ATP 50 µM
MAPKAPK3 (human) = MAPKAPK3 (human) (UniProt Q16644); settings: compound 100.0 µM; ATP 20 µM
PRKCG (human) = PRKCG (human) (UniProt P05129); settings: compound 100.0 µM; ATP 20 µM
EPHA2 (human) = EPHA2 (human) (UniProt P29317); settings: compound 100.0 µM; ATP 50 µM
NEK6 (human) = NEK6 (human) (UniProt Q9HC98); settings: compound 100.0 µM; ATP 50 µM
NEK2 (human) = NEK2 (human) (UniProt P51955); settings: compound 100.0 µM; ATP 50 µM
PRKCA (human) = PRKCA (human) (UniProt P17252); settings: compound 100.0 µM; ATP 20 µM
[3] = system: AKT2 (human), P31751 [S474D]; settings: compound 100.0 µM; ATP 50 µM
SYK (human) = SYK (human) (UniProt P43405); settings: compound 100.0 µM; ATP 20 µM
CAMKK2 (human) = CAMKK2 (human) (UniProt Q96RR4); settings: compound 100.0 µM; ATP 20 µM
MAPK15 (human) = MAPK15 (human) (UniProt Q8TD08); settings: compound 100.0 µM; ATP 5 µM
SRPK1 (human) = SRPK1 (human) (UniProt Q96SB4); settings: compound 100.0 µM; ATP 50 µM
BTK (human) = BTK (human) (UniProt Q06187); settings: compound 100.0 µM; ATP 50 µM
PAK7 (human) = PAK7 (human) (UniProt Q9P286); settings: compound 100.0 µM; ATP 20 µM
[4] = system: SGK1 (human), O00141 [S422D]; settings: compound 100.0 µM; ATP 20 µM
PKN2 (human) = PKN2 (human) (UniProt Q16513); settings: compound 100.0 µM; ATP 5 µM
PKN2 (human), sequence (Q16513 whole entry, looked up): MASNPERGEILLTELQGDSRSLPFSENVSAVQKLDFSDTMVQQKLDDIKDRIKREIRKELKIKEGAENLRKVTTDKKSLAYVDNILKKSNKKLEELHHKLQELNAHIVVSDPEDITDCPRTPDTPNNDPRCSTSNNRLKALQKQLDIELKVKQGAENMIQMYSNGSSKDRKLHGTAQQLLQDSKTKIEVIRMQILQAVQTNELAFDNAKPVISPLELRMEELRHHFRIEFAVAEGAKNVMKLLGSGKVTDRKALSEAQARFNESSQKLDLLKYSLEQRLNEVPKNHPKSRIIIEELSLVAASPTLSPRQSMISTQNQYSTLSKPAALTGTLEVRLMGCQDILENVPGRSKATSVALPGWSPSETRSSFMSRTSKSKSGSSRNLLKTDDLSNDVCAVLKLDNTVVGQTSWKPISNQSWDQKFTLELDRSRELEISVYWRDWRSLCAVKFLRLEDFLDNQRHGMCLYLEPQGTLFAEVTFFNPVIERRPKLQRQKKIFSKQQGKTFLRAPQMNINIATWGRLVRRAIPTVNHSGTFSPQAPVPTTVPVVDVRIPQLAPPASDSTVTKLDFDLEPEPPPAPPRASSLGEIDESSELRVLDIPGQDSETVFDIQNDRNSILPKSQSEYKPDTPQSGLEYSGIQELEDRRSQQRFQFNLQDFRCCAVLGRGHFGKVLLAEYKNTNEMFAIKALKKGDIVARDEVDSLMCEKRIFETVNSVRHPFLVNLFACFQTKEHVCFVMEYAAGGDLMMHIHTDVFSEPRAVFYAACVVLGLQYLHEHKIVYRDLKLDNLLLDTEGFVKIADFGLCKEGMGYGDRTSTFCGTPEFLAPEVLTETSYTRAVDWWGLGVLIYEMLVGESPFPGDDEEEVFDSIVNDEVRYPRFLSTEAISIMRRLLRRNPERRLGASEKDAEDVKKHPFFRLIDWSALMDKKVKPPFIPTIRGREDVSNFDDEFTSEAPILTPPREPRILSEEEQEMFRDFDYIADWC

MAPKAPK2 (human) = MAPKAPK2 (human) (UniProt P49137); settings: compound 100.0 µM; ATP 20 µM
MAPKAPK2 (human), sequence (P49137 whole entry, looked up): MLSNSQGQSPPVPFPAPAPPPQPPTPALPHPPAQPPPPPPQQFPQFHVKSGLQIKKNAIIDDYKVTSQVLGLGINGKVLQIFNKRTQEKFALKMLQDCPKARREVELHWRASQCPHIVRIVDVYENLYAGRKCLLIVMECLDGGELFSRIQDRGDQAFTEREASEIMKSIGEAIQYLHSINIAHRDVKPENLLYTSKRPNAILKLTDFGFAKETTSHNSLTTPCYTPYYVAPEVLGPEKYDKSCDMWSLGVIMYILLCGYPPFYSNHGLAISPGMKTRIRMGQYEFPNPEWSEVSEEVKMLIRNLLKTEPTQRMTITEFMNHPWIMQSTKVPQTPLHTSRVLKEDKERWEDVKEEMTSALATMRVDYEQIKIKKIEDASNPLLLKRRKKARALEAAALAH

MELK (human) = MELK (human) (UniProt Q14680); settings: compound 100.0 µM; ATP 50 µM

PIM2 (human), sequence (Q9P1W9 whole entry, looked up): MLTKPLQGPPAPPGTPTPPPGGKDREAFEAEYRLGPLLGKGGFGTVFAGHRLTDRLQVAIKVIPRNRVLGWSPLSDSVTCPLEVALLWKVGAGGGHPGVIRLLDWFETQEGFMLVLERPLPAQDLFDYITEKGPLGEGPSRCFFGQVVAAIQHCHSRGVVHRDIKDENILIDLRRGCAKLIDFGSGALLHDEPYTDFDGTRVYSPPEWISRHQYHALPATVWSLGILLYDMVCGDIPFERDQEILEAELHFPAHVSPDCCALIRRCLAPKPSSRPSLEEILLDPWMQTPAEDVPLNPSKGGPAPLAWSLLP

inhibition (DYRK1A (human)) [%] | inhibition (MAP3K9 (human)) [%] | inhibition (PIM2 (human)) [%] | inhibition (PIM1 (human)) [%] | inhibition (STK3 (human)) [%] | inhibition (RPS6KA5 KD1 KD2 (human)) [%] | inhibition (YES1 (human)) [%] | inhibition (CHEK2 (human)) [%] | inhibition (FLT1 (human)) [%] | inhibition (MAP3K1 (human)) [%] | inhibition (MINK1 (human)) [%] | inhibition (FGFR1 (human)) [%] | inhibition (IGF1R (human)) [%] | inhibition [1] [%] | inhibition (PAK6 (human)) [%] | inhibition (DYRK3 (human)) [%] | inhibition (MAPK11 (human)) [%] | inhibition (DYRK2 (human)) [%] | inhibition [2] [%] | inhibition (MST4 (human)) [%] | Structure (SMILES) | other results
30 | 14 | 16 | 30 | 0 | 0 | 4 | 19 | 0 | 0 | 3 | 40 | 0 | 0 | 20 | 17 | 3 | 6 | 18 | 0 | CC(C)(C)Nc1c(COCc2ccccc2)nc2[nH]cnn12 | inhibition (PHKG1 (human)): 10%; inhibition (MYLK (human)): 24%; inhibition (MAPKAPK3 (human)): 38%; inhibition (PRKCG (human)): 8%; inhibition (EPHA2 (human)): 0%; inhibition (NEK6 (human)): 0%; inhibition (NEK2 (human)): 6%; inhibition (PRKCA (human)): 0%; inhibition [3]: 39%; inhibition (SYK (human)): 12%; inhibition (CAMKK2 (human)): 28%; inhibition (MAPK15 (human)): 1%; inhibition (SRPK1 (human)): 3%; inhibition (BTK (human)): 51%; inhibition (PAK7 (human)): 0%; inhibition [4]: 0%; inhibition (PKN2 (human)): 16%; inhibition (MAPKAPK2 (human)): 2%; inhibition (MELK (human)): 16%
0 | 0 | 15 | 11 | 0 | 0 | 0 | 0 | 12 | 0 | 0 | 65 | 0 | 0 | 0 | 7 | 0 | 4 | 5 | 0 | CC(C)(C)Nc1c(C2CC2)nc2[nH]cnn12 | inhibition (PHKG1 (human)): 6%; inhibition (MYLK (human)): 14%; inhibition (MAPKAPK3 (human)): 10%; inhibition (PRKCG (human)): 9%; inhibition (EPHA2 (human)): 0%; inhibition (NEK6 (human)): 0%; inhibition (NEK2 (human)): 0%; inhibition (PRKCA (human)): 0%; inhibition [3]: 31%; inhibition (SYK (human)): 7%; inhibition (CAMKK2 (human)): 34%; inhibition (MAPK15 (human)): 60%; inhibition (SRPK1 (human)): 0%; inhibition (BTK (human)): 6%; inhibition (PAK7 (human)): 18%; inhibition [4]: 0%; inhibition (PKN2 (human)): 17%; inhibition (MAPKAPK2 (human)): 0%; inhibition (MELK (human)): 0%

— the kinase profiling compilation of Christmann-Franck et al. (2016)
